In patent US20250034136A1 (Nimbus Wadjet, Inc., priority 2023, published 2025):
Read-outs that look alike come from different tables or passages of the source.

Experiments:
[1] = biological target: WRN (BV08), human Werner helicase (Uniprot Q14191, amino acids 517-1235 with L1074F point mutation) (Homo sapiens (Human), UniProt Q14191, L1074F); assay: WRN (BV08) ADP-Glo assay; type: biochemical; settings: class symbols A-E, read-out: ADP-Glo_hWRN_IC50
Description: Bovine skin gelatin (BSG), dimethyl sulfoxide (DMSO), Pluronic F-127 and tris(2-carboxyethyl)phosphine hydrochloride solution (TCEP) were purchased from Sigma-Aldrich (St. Louis, MO) at the highest level of purity possible. […] DNA strands were annealed by heating to 95° C. for 5 minutes followed by slow cooling to room temperature. Compounds in 100% DMSO (0.1 μl) were spotted into a 384-well white polystyrene Optiplate-384 (Perkin Elmer; Waltham, MA) assay plate using a LabCyte Echo 550 (Agilent; Santa Clara, CA). DMSO (0.1 μl) was added to columns 12, rows A-H and column 24, rows I-P for the maximum signal control. […] Compounds/DMSO were preincubated for 15 minutes at 25° C. with 5 μl 2×WRN (BV08), prepared as described below, in assay buffer containing 20 mM Bicine (pH=7.5), 1 mM MgCl2, 10 mM KCl, 0.1% Pluronic F-127, 0.005% BSG, 1 mM TCEP. The reaction was initiated by the addition of 5 μl 2× substrate mixture in assay buffer and incubated for 60 minutes at 25° C. The final concentrations of the assay components were 0.15 nM WRN, 5 μM ATP, and 0.1 nM DNA duplex. The final DMSO concentration was 1% and the reference compound concentration (NSC-617145) used for the minimal signal control was 20 μM. The reaction was stopped by the addition of the ADP-Glo Kit components (Promega; Madison, WI) as directed and the relative luminescence units (RLU) were read on an Envision 2104 (Perkin Elmer; Waltham, MA). % inhibition calculation:
[formula] • Where RLU=relative luminescence units, sample=signal in sample well, and MIN and MAX are the respective minimum and maximum signal controls.
[formula] • Where top and bottom are normally allowed to float but may be fixed at 100 or 0 respectively in a 3-parameter fit. Y is the % inhibition and X is the compound concentration.
Molecular Biology and virus production. […] The baculovirus from the expression plasmid WRN—BV08 was generated from transfection and amplification following the manufacturer's instructions.
Sf9 cells grown in SF900II media were infected with 1:200 WRN—BV08 P2 virus and incubated for protein expression for 72 h at 27° C. The WRN protein was purified using the following protocol. The cell pellets were thawed and resuspended in buffer A (50 mM Tris, pH 7.5, 500 mM NaCl, 1 mM TCEP, 10% Glycerol) supplemented with 0.5% CHAPS, 1 mM PMSF, 1 μg/ml Leupeptin, 1 μg/ml Pepstatin, and the Pierce Universal Nuclease and cocktail tablet. Cleared lysates were loaded onto a Ni Sepharose™ excel column and washed with buffer A and bound protein was eluted with buffer A supplemented with 300 mM imidazole. The eluted protein was dialyzed against buffer A and digested by His-tagged TEV (1:5 ratio) overnight at 4° C. ZnCl2 was added into the sample at final 15 μM before loading onto a second Ni Sepharose™ excel column. Untagged WRN protein was eluted from the column with buffer A supplemented with 20 mM imidazole, dialyzed overnight into buffer B (50 mM Tris, pH 7.5, 1 mM TCEP, 10% Glycerol) supplemented with 150 mM NaCl and loaded onto a Heparin column. Proteins were eluted with a step gradient of buffer B supplemented with 150 mM, 200 mM, 300 mM and 500 mM NaCl. WRN containing fractions were pooled and concentrated prior to loading on to size exclusion chromatography using a HiLoad 16/600 Superdex™ 200 pg column (GE Healthcare) in buffer C (20 mM HTEPES, pH 7.5, 250 mM NaCl, 0.25 mM TCEP, […]).

[2] = system: p21 induction in HCT116 cells; assay: p21 induction in HCT116 cells; type: cell-based; settings: HCT116 cells, 24 h compound incubation, read-out: P21_EC50
Description: The colon carcinoma cell line HCT116 was obtained from ATCC and cultured in growth medium consisting of Mccoy's 5A Medium (Gibco 16600108) supplemented with 10% FBS (Transgene FS201-02) and 100 units/mL penicillin-streptomycin (Gibco 15140122) and maintained at 37° C. under 5% CO2. On the day of seeding, 2,000 cells in 30 μL of culture media were plated per well to Poly-D-Lysine 384 Well Black Clear Plates (Biocoat 356663) and incubated overnight at 37° C. under 5% CO2. The following day, compounds were serially diluted in DMSO for a total of 11 test concentrations. […] Next, 150 nL of diluted compound was added in duplicate to the assay plate, using an Echo 655 (Labcyte). The plate was centrifuged at 500 RPM for 1 min and then incubated at 37° C. under 5% CO2 for 24 h. After 24 h, medium was removed, and cells were fixed by adding 40 μL of 4% paraformaldehyde solution to each well and incubated for 20 min at room temperature. The plate was then washed 4 times with 100 μL per well of wash buffer (PBS with 0.1% Tween-20) using a microplate washer. Next, 30 μL of ice-cold methanol was added to each well and the plate was incubated at −20° C. for 10 min. The plate was washed 4 times with 100 μL per well of wash buffer by a microplate washer, then 30 μL per well of blocking buffer (Intercept PBS blocking buffer (LI-COR 927-70001) with 0.05% Tween-20) was added and the plate was incubated at room temperature with shaking for 2 h. Next, to each test well, 20 μL of primary antibody solution (p21 Waf1/CIP (12D1) RabbitmAb (Cell Signaling Technologies 2947) diluted 1:1000 and GAPDH (D4C6R) Mouse mAb (Cell Signaling Technologies 97166) diluted 1:2000 in blocking buffer) was added and the plate was placed at 4° C., overnight. The following day, the plate was washed 5 times with 100 μL per well of wash buffer using a microplate washer for 5 min. 20 μL per well of secondary antibody (IRDye 680CW Goat anti-Mouse IgG (H+L) (LI-COR 926-68070) diluted 1: 2000 in Blocking Buffer and IRDye 800CW Goat anti-Rabbit IgG (H+L) (LI-COR 926-32211) diluted 1: 2000 in Blocking Buffer) was then added and the plate was stored for 2 h in the dark at room temperature with shaking. The plate was then washed 4 times with 100 μL per well of wash buffer again using a microplate washer. Finally, the p21 signal and the GAPDH signal were quantified using a LI-COR Odyssey CLx Imager machine reading at 800 nm and 700 nm, respectively. Each plate contained DMSO control (low control) and an internal reference WRN inhibitor (high control) respectively. […] EC50 values for each compound were generated after non-linear regression curve fitting using commercially available software.

WRN (BV08), human Werner helicase (Uniprot Q14191, amino acids 517-1235 with L1074F point mutation), sequence (Q14191 other isoform, or with tags, fused parts or gaps L1074F (already in the parent)): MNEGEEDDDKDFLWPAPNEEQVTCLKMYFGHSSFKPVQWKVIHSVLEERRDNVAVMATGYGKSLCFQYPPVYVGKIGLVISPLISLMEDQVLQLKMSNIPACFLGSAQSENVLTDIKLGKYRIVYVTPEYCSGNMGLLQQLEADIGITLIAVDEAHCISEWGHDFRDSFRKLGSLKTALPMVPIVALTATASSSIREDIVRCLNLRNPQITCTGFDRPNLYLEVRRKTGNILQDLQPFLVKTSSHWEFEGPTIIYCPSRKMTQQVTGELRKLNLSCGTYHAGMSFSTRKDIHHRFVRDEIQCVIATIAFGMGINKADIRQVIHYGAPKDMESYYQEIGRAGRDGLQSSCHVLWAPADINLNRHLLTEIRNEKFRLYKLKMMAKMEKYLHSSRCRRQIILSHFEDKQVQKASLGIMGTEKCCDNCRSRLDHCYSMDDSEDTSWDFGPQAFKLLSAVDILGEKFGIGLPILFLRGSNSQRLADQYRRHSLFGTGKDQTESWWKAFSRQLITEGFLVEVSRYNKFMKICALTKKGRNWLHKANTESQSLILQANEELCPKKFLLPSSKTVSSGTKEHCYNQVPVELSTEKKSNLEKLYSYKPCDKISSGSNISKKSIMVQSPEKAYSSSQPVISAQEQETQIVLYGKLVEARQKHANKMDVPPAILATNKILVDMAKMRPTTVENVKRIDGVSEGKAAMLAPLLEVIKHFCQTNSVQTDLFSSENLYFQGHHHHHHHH

SMILES	IC50 [1] [µM]	EC50 ([2]; Homo sapiens, HCT-116, 24 h) [µM]	EC50 [2] [µM]
CCc1c(N2CCN(C(=O)c3ncnc(C)c3O)[C@H]3CCC32)c(=O)c2nc(OC)c(C)nc2n1CC(=O)Nc1ccc(C(F)(F)F)cc1Cl (mixture of isomers) [I-16, rac-N-(2-chloro-4-(trifluoromethyl)phenyl)-2-(6-ethyl-7-(5-(5-hydroxy-6-methylpyrimidine-4-carbonyl)-2,5-diazabicyclo[4.2.0]octan-2-yl)-2-methoxy-3-methyl-8-oxopyrido[2,3-b]pyrazin-5(8H)-yl)acetamide]	0.005 to 0.05	0.5 to 2	–
CCc1c(N2CCN(C(=O)c3ncnc(C)c3O)[C@H]3CC[C@@H]32)c(=O)c2nc(NC)cnc2n1CC(=O)Nc1ccc(C(F)(F)F)cc1Cl (racemic) [I-97, rac-N-(2-chloro-4-(trifluoromethyl)phenyl)-2-(6-ethyl-7-(-5-(5-hydroxy-6-methylpyrimidine-4-carbonyl)-2,5-diazabicyclo[4.2.0]octan-2-yl)-2-(methylamino)-8-oxopyrido[2,3-b]pyrazin-5(8H)-yl)acetamide]	0.005 to 0.05	< 0.5	–
CCc1c(N2CCN(C(=O)c3ncnc(C)c3O)[C@@H]3CC[C@H]32)c(=O)c2nc(C=C3CCC3)cnc2n1CC(=O)Nc1ccc(C(F)(F)F)cc1Cl (racemic) [I-135]	0.005 to 0.05	< 0.5	–
CCO/C=C/c1cnc2c(n1)c(=O)c(N1CCN(C(=O)c3ncnc(C)c3O)[C@H]3CC[C@@H]31)c(CC)n2CC(=O)Nc1ccc(C(F)(F)F)cc1Cl (racemic) [I-136, rac-N-[2-chloro-4-(trifluoromethyl)phenyl]-2-{2-[(1E)-2-ethoxyethenyl]-6-ethyl-7-[-5-(5-hydroxy-6-methylpyrimidine-4-carbonyl)-2,5-diazabicyclo[4.2.0]octan-2-yl]-8-oxo-5H,8H-pyrido[2,3-b]pyrazin-5-yl}acetamide]	0.005 to 0.05	< 0.5	–
CCc1c(N2CCN(C(=O)c3c(O)ccnc3OC)[C@@H]3CC[C@H]32)c(=O)c2nc(N(C)C)cnc2n1CC(=O)Nc1ccc(C(F)(F)F)cc1Cl (racemic) [I-139, rac-N-[2-chloro-4-(trifluoromethyl)phenyl]-2-[2-(dimethylamino)-6-ethyl-7-[-5-(4-hydroxy-2-methoxypyridine-3-carbonyl)-2,5-diazabicyclo[4.2.0]octan-2-yl]-8-oxo-5H,8H-pyrido[2,3-b]pyrazin-5-yl]acetamide]	0.005 to 0.05	0.5 to 2	–
CCc1c(N2CCN(C(=O)c3ncnc(C)c3O)[C@H]3CC[C@@H]32)c(=O)c2nc(N3CC[C@H]4C[C@H]43)cnc2n1CC(=O)Nc1ccc(C(F)(F)F)cc1F (relative stereo) [I-122, 2-(2-((1R*,5S*)-2-azabicyclo[3.1.0]hexan-2-yl)-6-ethyl-7-((1S,6S)-5-(5-hydroxy-6-methylpyrimidine-4-carbonyl)-2,5-diazabicyclo[4.2.0]octan-2-yl)-8-oxopyrido[2,3-b]pyrazin-5(8H)-yl)-N-(2-fluoro-4-(trifluoromethyl)phenyl)acetamide]	≤ 0.005	< 0.5	–
CCc1c(N2CCN(C(=O)c3ncnc(C)c3O)[C@@H](COC)C2)c(=O)c2nc(N(C)C)cnc2n1CC(=O)Nc1ccc(C(F)(F)F)cc1Cl (single isomer, unassigned) [I-96, N-(2-chloro-4-(trifluoromethyl)phenyl)-2-(2-(dimethylamino)-6-ethyl-7-(4-(5-hydroxy-6-methylpyrimidine-4-carbonyl)-3-(methoxymethyl)piperazin-1-yl)-8-oxopyrido[2,3-b]pyrazin-5(8H)-yl)acetamide]	0.005 to 0.05	–	> 5

The next lines start with the values.

IC50 [1] [µM]	EC50 ([2]; Homo sapiens, HCT-116, 24 h) [µM]	EC50 [2] [µM]	SMILES
0.005 to 0.05	2 to 5	–	CCc1c(N2CCN(C(=O)c3ncnc(C)c3O)CC2)c(=O)c2nc(N(C)[C@H]3CC[C@@H]3OC)cnc2n1CC(=O)Nc1ccc(C(F)(F)F)cc1Cl (racemic) [I-143, rac-N-(2-chloro-4-(trifluoromethyl)phenyl)-2-(6-ethyl-7-(4-(5-hydroxy-6-methylpyrimidine-4-carbonyl)piperazin-1-yl)-2-((2-methoxycyclobutyl)(methyl)amino)-8-oxopyrido[2,3-b]pyrazin-5(8H)-yl)acetamide]
0.005 to 0.05	2 to 5	–	CCc1c(N2CCN(C(=O)c3ncnc(C)c3O)CC2)c(=O)c2nc(N(C)[C@H]3CC[C@H]3OC)cnc2n1CC(=O)Nc1ccc(C(F)(F)F)cc1Cl (racemic) [I-146, rac-N-(2-chloro-4-(trifluoromethyl)phenyl)-2-(6-ethyl-7-(4-(5-hydroxy-6-methylpyrimidine-4-carbonyl)piperazin-1-yl)-2-((2-methoxycyclobutyl)(methyl)amino)-8-oxopyrido[2,3-b]pyrazin-5(8H)-yl)acetamide]
0.005 to 0.05	< 0.5	–	CCc1c(N2CCN(C(=O)c3ncnc(C)c3O)CC2)c(=O)c2nc(N3CC[C@@H]4CC[C@@H]43)cnc2n1CC(=O)Nc1ccc(C(F)(F)F)cc1Cl (racemic) [I-230, rac-2-(2-(2-azabicyclo[3.2.0]heptan-2-yl)-6-ethyl-7-(4-(5-hydroxy-6-methylpyrimidine-4-carbonyl)piperazin-1-yl)-8-oxopyrido[2,3-b]pyrazin-5(8H)-yl)-N-(2-chloro-4-(trifluoromethyl)phenyl)acetamide]
0.005 to 0.05	2 to 5	–	CCc1c(N2CCN(C(=O)c3ncnc(C)c3O)[C@H]3CC(F)(F)C[C@@H]32)c(=O)c2nc(N(C)C)cnc2n1CC(=O)Nc1ccc(C(F)(F)F)cc1Cl (racemic) [I-291, rac-N-(2-chloro-4-(trifluoromethyl)phenyl)-2-(7-(6,6-difluoro-4-(5-hydroxy-6-methylpyrimidine-4-carbonyl)octahydro-1H-cyclopenta[b]pyrazin-1-yl)-2-(dimethylamino)-6-ethyl-8-oxopyrido[2,3-b]pyrazin-5(8H)-yl)acetamide]
